Assay results: ChEMBL document CHEMBL5390317, “Novel Indane-Containing NBTIs with Potent Anti-Gram-Negative Activity and Minimal hERG Inhibition” (ACS Med Chem Lett, 2023)
In brackets after ≈: the same amount, converted by molar mass.

Columns and labels:
Escherichia coli [1] = test: Antibacterial activity against Escherichia coli K-12 BW25113 assessed as inhibition in bacterial growth incubated for 20 to 24 hrs by CLSI based broth microdilution method; assay type: functional; conditions: Escherichia coli, K-12 BW25113, time 20-24 hrs; read-out: MIC
[2] = target: Voltage-gated inwardly rectifying potassium channel KCNH2 (Homo sapiens, UniProt Q12809); test: (§1) Inhibition of hERG potassium channel expressed in CHO cells by electrophysiological patch clamp assay; assay type: toxicity, cell-based
Voltage-gated inwardly rectifying potassium channel KCNH2, sequence (Q12809 whole entry): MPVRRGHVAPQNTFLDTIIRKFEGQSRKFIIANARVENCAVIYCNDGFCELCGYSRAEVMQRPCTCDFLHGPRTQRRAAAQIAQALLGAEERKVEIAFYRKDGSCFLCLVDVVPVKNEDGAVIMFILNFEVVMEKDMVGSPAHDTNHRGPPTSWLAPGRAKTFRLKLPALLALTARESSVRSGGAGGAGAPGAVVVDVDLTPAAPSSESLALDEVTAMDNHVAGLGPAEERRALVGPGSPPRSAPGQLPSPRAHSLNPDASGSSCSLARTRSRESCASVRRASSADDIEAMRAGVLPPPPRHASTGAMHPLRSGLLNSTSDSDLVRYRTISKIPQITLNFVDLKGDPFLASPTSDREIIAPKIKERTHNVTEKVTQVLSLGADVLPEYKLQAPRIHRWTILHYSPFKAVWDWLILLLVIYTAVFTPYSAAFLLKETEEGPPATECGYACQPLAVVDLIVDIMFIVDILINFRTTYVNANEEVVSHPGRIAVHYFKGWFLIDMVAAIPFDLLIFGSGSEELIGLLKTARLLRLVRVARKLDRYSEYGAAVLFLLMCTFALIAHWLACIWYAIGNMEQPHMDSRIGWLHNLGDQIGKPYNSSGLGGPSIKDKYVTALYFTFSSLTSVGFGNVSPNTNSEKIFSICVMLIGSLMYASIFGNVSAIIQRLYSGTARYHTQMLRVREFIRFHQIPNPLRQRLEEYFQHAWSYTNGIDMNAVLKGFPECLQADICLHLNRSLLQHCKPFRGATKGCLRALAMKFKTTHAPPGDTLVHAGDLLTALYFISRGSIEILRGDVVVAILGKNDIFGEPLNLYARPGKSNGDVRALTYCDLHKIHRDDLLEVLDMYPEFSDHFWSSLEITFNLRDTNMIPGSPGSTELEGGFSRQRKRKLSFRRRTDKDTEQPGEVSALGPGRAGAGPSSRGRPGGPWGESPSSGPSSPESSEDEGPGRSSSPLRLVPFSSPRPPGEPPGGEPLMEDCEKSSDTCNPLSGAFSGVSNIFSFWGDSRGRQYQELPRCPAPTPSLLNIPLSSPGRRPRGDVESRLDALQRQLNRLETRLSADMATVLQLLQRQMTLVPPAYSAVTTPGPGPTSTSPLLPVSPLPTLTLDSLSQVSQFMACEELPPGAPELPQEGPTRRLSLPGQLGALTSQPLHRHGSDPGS

hERG (KCNH2) [3] = target: T1, hERG (KCNH2) (Homo sapiens, UniProt Q12809); test: as §1; assay type: toxicity, cell-based; conditions: human, CHO cells expressing hERG
T1 sequence (Q12809 whole entry): as above

Pseudomonas aeruginosa [4] = test: Antibacterial activity against Pseudomonas aeruginosa NCTC 11451 assessed as inhibition in bacterial growth incubated for 20 to 24 hrs by CLSI based broth microdilution method; assay type: functional; conditions: Pseudomonas aeruginosa, NCTC 11451, time 20-24 hrs; read-out: MIC
Escherichia coli [5] = test: Antibacterial activity against Escherichia coli ATCC BAA-2340 assessed as inhibition in bacterial growth incubated for 20 to 24 hrs by CLSI based broth microdilution method; assay type: functional; conditions: Escherichia coli, ATCC BAA-2340, time 20-24 hrs; read-out: MIC
Klebsiella pneumoniae [6] = test: Antibacterial activity against Klebsiella pneumoniae ATCC BAA-1705 assessed as inhibition in bacterial growth incubated for 20 to 24 hrs by CLSI based broth microdilution method; assay type: functional; conditions: time 20-24 hrs
Escherichia coli [7] = test: Antibacterial activity against Escherichia coli ATCC 35218 assessed as inhibition in bacterial growth incubated for 20 to 24 hrs by CLSI based broth microdilution method; assay type: functional; conditions: Escherichia coli, ATCC 35218, time 20-24 hrs; read-out: MIC
Klebsiella pneumoniae [8] = test: Antibacterial activity against Klebsiella pneumoniae ATCC 700603 assessed as inhibition in bacterial growth incubated for 20 to 24 hrs by CLSI based broth microdilution method; assay type: functional; conditions: Klebsiella pneumoniae, ATCC 700603, time 20-24 hrs; read-out: MIC
Escherichia coli [9] = test: Antibacterial activity against Escherichia coli K-12 BW25113 deltaTolC assessed as inhibition in bacterial growth incubated for 20 to 24 hrs by CLSI based broth microdilution method; assay type: functional; conditions: time 20-24 hrs
Acinetobacter baumannii [10] = test: Antibacterial activity against Acinetobacter baumannii ATCC 19606 assessed as inhibition in bacterial growth incubated for 20 to 24 hrs by CLSI based broth microdilution method; assay type: functional; conditions: time 20-24 hrs
Escherichia coli [11] = test: Antibacterial activity against Escherichia coli ATCC 25922 assessed as inhibition in bacterial growth incubated for 20 to 24 hrs by CLSI based broth microdilution method; assay type: functional; conditions: time 20-24 hrs
Acinetobacter baumannii [12] = test: Antibacterial activity against Acinetobacter baumannii ATCC 51432 assessed as inhibition in bacterial growth incubated for 20 to 24 hrs by CLSI based broth microdilution method; assay type: functional; conditions: Acinetobacter baumannii, ATCC 51432, time 20-24 hrs; read-out: MIC
[13] = Inhibition of Escherichia coli topoisomerase 4 incubated for 120 mins by Transcreener ADP2 FI assay
Staphylococcus aureus [14] = test: Antibacterial activity against Staphylococcus aureus ATCC 29213 assessed as inhibition in bacterial growth incubated for 20 to 24 hrs by CLSI based broth microdilution method; assay type: functional; conditions: Staphylococcus aureus, ATCC 29213; time 20-24 hrs; read-out: MIC
Klebsiella pneumoniae [15] = test: Antibacterial activity against Klebsiella pneumoniae ATCC BAA-2146 assessed as inhibition in bacterial growth incubated for 20 to 24 hrs by CLSI based broth microdilution method; assay type: functional; conditions: Klebsiella pneumoniae, ATCC BAA-2146, time 20-24 hrs; read-out: MIC
hERG (KCNH2) [16] = target: T1, hERG (KCNH2); test: Inhibition of hERG potassium channel expressed in CHO cells at 1 uM by electrophysiological patch clamp assay relative to control; assay type: toxicity, cell-based; conditions: CHO cells expressing hERG
Acinetobacter baumannii [17] = test: Antibacterial activity against Acinetobacter baumannii ATCC BAA-747 assessed as inhibition in bacterial growth incubated for 20 to 24 hrs by CLSI based broth microdilution method; assay type: functional; conditions: Acinetobacter baumannii, ATCC BAA-747, time 20-24 hrs; read-out: MIC
hERG (KCNH2) [18] = target: T1, hERG (KCNH2); test: Inhibition of hERG potassium channel expressed in CHO cells at 10 uM by electrophysiological patch clamp assay relative to control; assay type: toxicity, cell-based; conditions: CHO cells expressing hERG
Pseudomonas aeruginosa [19] = test: Antibacterial activity against Pseudomonas aeruginosa ATCC 27853 assessed as inhibition in bacterial growth incubated for 20 to 24 hrs by CLSI based broth microdilution method; assay type: functional; conditions: time 20-24 hrs
Klebsiella pneumoniae [20] = test: Antibacterial activity against Klebsiella pneumoniae ATCC 10031 assessed as inhibition in bacterial growth incubated for 20 to 24 hrs by CLSI based broth microdilution method; assay type: functional; conditions: time 20-24 hrs
DNA gyrase = DNA gyrase (Escherichia coli, UniProt P0AES4+P0AES6); test: Inhibition of Escherichia coli DNA gyrase incubated for 80 mins by Transcreener ADP2 FI assay; assay type: protein-complex assay
Pseudomonas aeruginosa [21] = test: Antibacterial activity against Pseudomonas aeruginosa NCTC 13437 assessed as inhibition in bacterial growth incubated for 20 to 24 hrs by CLSI based broth microdilution method; assay type: functional; conditions: Pseudomonas aeruginosa, NCTC 13437, time 20-24 hrs; read-out: MIC
Staphylococcus aureus [22] = test: Antibacterial activity against Staphylococcus aureus ATCC BAA-1556 assessed as inhibition in bacterial growth incubated for 20 to 24 hrs by CLSI based broth microdilution method; assay type: functional; conditions: Staphylococcus aureus, ATCC BAA-1556, time 20-24 hrs; read-out: MIC

MIC (Escherichia coli [1]) [µg/mL]	MIC (Pseudomonas aeruginosa [4]) [µg/mL]	MIC (Escherichia coli [5]) [µg/mL]	MIC (Klebsiella pneumoniae [6]) [µg/mL]	MIC (Escherichia coli [7]) [µg/mL]	MIC (Klebsiella pneumoniae [8]) [µg/mL]	MIC (Escherichia coli [9]) [µg/mL]	MIC (Acinetobacter baumannii [10]) [µg/mL]	MIC (Escherichia coli [11]) [µg/mL]	MIC (Acinetobacter baumannii [12]) [µg/mL]	IC50 [13] [nM]	MIC (Staphylococcus aureus [14]) [µg/mL]	MIC (Klebsiella pneumoniae [15]) [µg/mL]	MIC (Acinetobacter baumannii [17]) [µg/mL]	MIC (Pseudomonas aeruginosa [19]) [µg/mL]	MIC (Klebsiella pneumoniae [20]) [µg/mL]	MIC (Pseudomonas aeruginosa [21]) [µg/mL]	Compound	IC20 (hERG (KCNH2) [3]) [nM]	inhibition at 1 µM (hERG (KCNH2) [16]) [%]	inhibition at 10 µM (hERG (KCNH2) [18]) [%]	further results
≤ 0.06	2 (≈ 3.91 µM)	0.25 (≈ 0.489 µM)	1 (≈ 1.95 µM)	0.125 (≈ 0.244 µM)	2 (≈ 3.91 µM)	≤ 0.06	0.5 (≈ 0.977 µM)	0.125 (≈ 0.244 µM)	1 (≈ 1.95 µM)	39	≤ 0.06	1 (≈ 1.95 µM)	≤ 0.06	0.5 (≈ 0.977 µM)	≤ 0.06	1 (≈ 1.95 µM)	NC1(COc2cc(F)c3c(c2)CC(CNCCC2CN(c4ccc5c(n4)NC(=O)CO5)C(=O)O2)C3)CC1 (stereo unspecified)	3100	< 1	45	IC50 [2]: > 10000 nM; IC50 (DNA gyrase): 100 nM; MIC (Staphylococcus aureus [22]): 0.125 µg/mL (≈ 0.244 µM)
≤ 0.06	1 (≈ 1.93 µM)	≤ 0.06	1 (≈ 1.93 µM)	0.125 (≈ 0.241 µM)	1 (≈ 1.93 µM)	≤ 0.06	1 (≈ 1.93 µM)	≤ 0.06	2 (≈ 3.86 µM)	19	≤ 0.06	4 (≈ 7.71 µM)	≤ 0.06	0.25 (≈ 0.482 µM)	≤ 0.06	0.5 (≈ 0.964 µM)	N#Cc1cc(OCC2(N)CC2)cc2c1CC(CNCCC1CN(c3ccc4c(n3)NC(=O)CO4)C(=O)O1)C2 (stereo unspecified)	6400	< 1	28	IC50 [2]: > 20000 nM; IC50 (DNA gyrase): 35 nM; MIC (Staphylococcus aureus [22]): ≤ 0.06 µg/mL
1 (≈ 1.93 µM)	4 (≈ 7.71 µM)	1 (≈ 1.93 µM)	16 (≈ 30.9 µM)	2 (≈ 3.86 µM)	32 (≈ 61.7 µM)	≤ 0.06	32 (≈ 61.7 µM)	2 (≈ 3.86 µM)	16 (≈ 30.9 µM)	19	0.5 (≈ 0.964 µM)	64 (≈ 123 µM)	8 (≈ 15.4 µM)	0.5 (≈ 0.964 µM)	0.125 (≈ 0.241 µM)	4 (≈ 7.71 µM)	N#Cc1cc(OCC2CNC2)cc2c1CC(CNCCC1CN(c3ccc4c(n3)NC(=O)CO4)C(=O)O1)C2 (stereo unspecified)	> 10000	< 1	< 1	IC50 [2]: > 20000 nM; IC50 (DNA gyrase): 38 nM; MIC (Staphylococcus aureus [22]): 1 µg/mL (≈ 1.93 µM)
≤ 0.06	1 (≈ 1.92 µM)	0.125 (≈ 0.24 µM)	2 (≈ 3.84 µM)	0.25 (≈ 0.48 µM)	4 (≈ 7.68 µM)	≤ 0.06	8 (≈ 15.4 µM)	0.25 (≈ 0.48 µM)	8 (≈ 15.4 µM)	23	0.125 (≈ 0.24 µM)	4 (≈ 7.68 µM)	0.25 (≈ 0.48 µM)	≤ 0.06	≤ 0.06	0.5 (≈ 0.96 µM)	CC(C)(N)COc1cc(C#N)c2c(c1)CC(CNCCC1CN(c3ccc4c(n3)NC(=O)CO4)C(=O)O1)C2 (stereo unspecified)	> 10000	3.5	11	IC50 [2]: > 20000 nM; IC50 (DNA gyrase): 16 nM; MIC (Staphylococcus aureus [22]): 0.25 µg/mL (≈ 0.48 µM)
≤ 0.06	2 (≈ 4 µM)	0.25 (≈ 0.5 µM)	1 (≈ 2 µM)	0.25 (≈ 0.5 µM)	2 (≈ 4 µM)	≤ 0.06	2 (≈ 4 µM)	0.25 (≈ 0.5 µM)	2 (≈ 4 µM)	39	≤ 0.06	2 (≈ 4 µM)	0.125 (≈ 0.25 µM)	0.25 (≈ 0.5 µM)	≤ 0.06	1 (≈ 2 µM)	CC(N)COc1cc(F)c2c(c1)CC(CNCCC1CN(c3ccc4c(n3)NC(=O)CO4)C(=O)O1)C2 (stereo unspecified)	> 10000	< 1	3.9	IC50 [2]: > 20000 nM; IC50 (DNA gyrase): 47 nM; MIC (Staphylococcus aureus [22]): 0.125 µg/mL (≈ 0.25 µM)
≤ 0.06	1 (≈ 2.31 µM)	≤ 0.06	1 (≈ 2.31 µM)	0.125 (≈ 0.288 µM)	1 (≈ 2.31 µM)	≤ 0.06	0.125 (≈ 0.288 µM)	≤ 0.06	≤ 0.06	4	≤ 0.06	4 (≈ 9.23 µM)	≤ 0.06	0.5 (≈ 1.15 µM)	≤ 0.06	0.5 (≈ 1.15 µM)	N#Cc1cccc2c1CC(CNCCC1CN(c3ccc4c(n3)NC(=O)CO4)C(=O)O1)C2 (stereo unspecified)	450	55	99	MIC (Staphylococcus aureus [22]): ≤ 0.06 µg/mL
